From the NIST ThermoML archive (doi:10.1016/j.jct.2006.09.015)

Tests used:
[1] = relative permittivity at various frequencies (dimensionless); details: 101.3 kPa, Liquid, Frequency=3 MHz, Bridge type OH-301 made in Radelcis, Hungary
[2] = relative permittivity at various frequencies (dimensionless); xn = mol fraction of the nth substance listed; details: 101.3 kPa, Liquid, Frequency=3 MHz, Bridge type OH-301 made in Radelcis, Hungary

COCCO [2-methoxyethan-1-ol]
[1]
Details | relative permittivity
293.15 K | 17.38
298.15 K | 16.95
303.15 K | 16.56

COCCO [2-methoxyethan-1-ol] + OCCOCCO
[2], x1 = 1
Details | relative permittivity
293.15 K | 17.38
298.15 K | 16.95
303.15 K | 16.56

COCCO [2-methoxyethan-1-ol] + OCCOCCOCCO
[2], x1 = 1
Details | relative permittivity
293.15 K | 17.38
298.15 K | 16.95
303.15 K | 16.56

COCCO [2-methoxyethan-1-ol] + OCCOCCOCCOCCO
[2], x1 = 1
Details | relative permittivity
293.15 K | 17.38
298.15 K | 16.95
303.15 K | 16.56

OCCOCCO [diethylene glycol]
[1]
Details | relative permittivity
293.15 K | 31.81
298.15 K | 30.95
303.15 K | 30.03

OCCOCCO [diethylene glycol] + COCCO
relative permittivity, [2]
Details | 293.15 K | 298.15 K | 303.15 K
x2 = 0 | 31.81 | 30.95 | 30.03
x2 = 0.0414 | 31.69 | 30.71 | 29.85
x2 = 0.0999 | 31.49 | 30.39 | 29.49
x2 = 0.2077 | 31.23 | 29.85 | 29.01
x2 = 0.3001 | 31.03 | 29.41 | 28.45
x2 = 0.4094 | 30.32 | 28.67 | 27.49
x2 = 0.4998 | 29.56 | 27.81 | 26.61
x2 = 0.5994 | 28.32 | 26.68 | 25.36
x2 = 0.6996 | 26.65 | 24.99 | 23.55
x2 = 0.7996 | 24.25 | 22.78 | 21.64
x2 = 0.9018 | 21.43 | 20.27 | 19.39
x2 = 0.9463 | 19.98 | 18.88 | 18.25

OCCOCCOCCO [triethylene glycol]
[1]
Details | relative permittivity
293.15 K | 23.69
298.15 K | 23.07
303.15 K | 22.43

OCCOCCOCCO [triethylene glycol] + COCCO
relative permittivity, [2]
Details | 293.15 K | 298.15 K | 303.15 K
x2 = 0 | 23.69 | 23.07 | 22.43
x2 = 0.05 | 23.69 | 23.05 | 22.42
x2 = 0.1 | 23.7 | 23.03 | 22.41
x2 = 0.2003 | 23.72 | 23.06 | 22.48
x2 = 0.2999 | 23.76 | 23.07 | 22.48
x2 = 0.4009 | 23.79 | 23.06 | 22.44
x2 = 0.5 | 23.82 | 22.95 | 22.35
x2 = 0.5999 | 23.77 | 22.76 | 21.91
x2 = 0.7 | 23.62 | 22.3 | 21.39
x2 = 0.8 | 22.92 | 21.54 | 20.43
x2 = 0.9 | 21.26 | 19.93 | 19.1
x2 = 0.9499 | 19.75 | 18.81 | 18.14
